Structures can show the parent of a compound that is named as a salt.
Key:
[1] = biological target: CDK2/cyclin A (Homo sapiens, UniProt P24941); test: Assay for Inhibition of CDK2/Cyclin A; assay type: biochemical; details: 20 ng CDK2/cyclin A, retinoblastoma protein substrate, [32P]ATP, 25° C. 15 minutes
Description: (§1) To determine the inhibitory potency and selectivity of compounds of the present invention against CDK4 and related kinases, compounds were evaluated in standard assays routinely used to measure inhibition of cyclin-dependent kinase enzymes and other protein kinases (see for example D. W. Fry et al., J. Biol. Chem. 2001, 276, 16617-16623). The assays were carried out as described below.
Assay for Inhibition of CDK2/Cyclin A
CDK2 enzyme assays for IC50 determinations and kinetic evaluation are performed as follows. 96-well filter plates (Millipore MADVN6550, Bedford, Mass.) are used. The final assay volume is 0.1 mL containing buffer A (20 mM TRIS (tris[hydroxymethyl]aminomethane) (pH 7.4), 50 mM NaCl, 1 mM dithiothreitol, 10 mM MgCl2), […] ATP containing 0.25 μCi [^32P]ATP, 20 ng CDK2/cyclin A, 1 μg retinoblastoma protein, and the test compound at appropriate dilutions in buffer A (Buffer A alone without added test compound was employed as a control for no inhibition. Buffer A containing excess ethylenediamine tetra acetic acid (EDTA) was used to determine the level of background ^32P in the absence of enzyme activity). All components except the ATP are added to the wells, and the plate is placed on a plate mixer for 2 minutes. The reaction is initiated by addition of [^32P]ATP, and the plate is incubated at 25° C. for 15 minutes. The reaction is terminated by addition of 0.1 mL 20% trichloroacetic acid (TCA). The plate is kept at 4° C. for at least 1 hour to allow the substrate to precipitate. The wells are then washed five times with 0.2 mL 10% TCA, and ^32P incorporation is determined with a beta plate counter (Wallac Inc., Gaithersburg, Md.). The IC50 of the test compound was determined using the median effect method (Chou, T-C and Talalay, P. Applications of the median effect principle for the assessment of low-dose risk of carcinogens and for the quantitation of synergism and antagonism of chemotherapeutic agents. In: New Avenues in Developmental Cancer Chemotherapy (Eds. Harrap, K. T. and Connors, T. A.), pp. 37-64. Academic Press, New York, 1987).

[2] = biological target: CDK4/Cyclin D (Homo sapiens, UniProt P11802); test: Assay for Inhibition of CDK4/Cyclin D; assay type: biochemical; details: 20 ng CDK4, retinoblastoma protein substrate, 25 μM ATP, 25° C. 15 minutes
Description: as §1
Assay for Inhibition of CDK4/Cyclin D
The CDK4 enzyme assay for IC50 determination and kinetic evaluation is performed as follows. 96-well filter plates (Millipore MADVN6550, Bedford, Mass.) are used. The total volume is 0.1 mL containing buffer A (20 mM TRIS (tris[hydroxymethyl]aminomethane)) (pH 7.4), 50 mM NaCl, 1 mM dithiothreitol, 10 mM MgCl2), 25 μM ATP containing 0.25 μCi [^32P]ATP, 20 ng CDK4, 1 μg retinoblastoma protein and the test compound at appropriate dilutions in buffer A. Buffer A alone without added test compound was employed as a control for no inhibition. Buffer A containing excess EDTA was used to determine the level of background ^32P in the absence of enzyme activity. All components except the ATP are added to the wells, and the plate is placed on a plate mixer for 2 minutes. The reaction is started by adding [^32P]ATP, and the plate is incubated at 25° C. for 15 minutes. The reaction is terminated by addition of 0.1 mL 20% trichloroacetic acid (TCA). The plate is kept at 4° C. for at least 1 hour to allow the substrate to precipitate. The wells are then washed five times with 0.2 mL 10% TCA, and ^32P incorporation is determined with a beta plate counter (Wallac Inc., Gaithersburg, Md.). The IC50 of the test compound was determined using the median effect method (Chou, T-C and Talalay, P. Applications of the median effect principle for the assessment of low-dose risk of carcinogens and for the quantitation of synergism and antagonism of chemotherapeutic agents. In: New Avenues in Developmental Cancer Chemotherapy (Eds. Harrap, K. T. and Connors, T. A.), pp. 37-64. Academic Press, New York, 1987).

[3] = test system: neointima formation; details: in rats; Brooks E. E. et al., J. Biol. Chem. 1997; cited from earlier work

Sequence of CDK4/Cyclin D (P11802 whole entry, species assumed): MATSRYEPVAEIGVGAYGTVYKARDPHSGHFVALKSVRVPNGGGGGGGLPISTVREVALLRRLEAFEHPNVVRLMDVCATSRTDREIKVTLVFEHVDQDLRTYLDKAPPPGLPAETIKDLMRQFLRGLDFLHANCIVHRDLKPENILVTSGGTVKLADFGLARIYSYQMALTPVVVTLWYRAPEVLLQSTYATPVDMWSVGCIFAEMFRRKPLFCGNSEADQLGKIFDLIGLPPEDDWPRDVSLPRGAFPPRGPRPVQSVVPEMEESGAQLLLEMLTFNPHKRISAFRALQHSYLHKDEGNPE
Sequence of CDK4/Cyclin D (P24385 whole entry partner, species assumed): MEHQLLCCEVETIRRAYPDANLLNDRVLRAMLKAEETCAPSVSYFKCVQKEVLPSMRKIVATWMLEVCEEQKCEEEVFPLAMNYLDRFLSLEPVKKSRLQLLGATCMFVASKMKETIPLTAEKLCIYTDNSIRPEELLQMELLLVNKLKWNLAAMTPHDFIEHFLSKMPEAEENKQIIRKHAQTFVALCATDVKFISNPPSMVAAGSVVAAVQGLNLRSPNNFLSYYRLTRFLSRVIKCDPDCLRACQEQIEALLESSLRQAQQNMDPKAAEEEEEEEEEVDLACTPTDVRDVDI

IC50 [1]	IC50 [2]	melting point	Compound	inhibition of neointima formation [3]
0.26 µM	0.003 µM	125 °C	CC(=O)c1c(C)c2cnc(Nc3ccc(N4CCNCC4)nc3)nc2n(C2CCCC2)c1=O [Example 7, 6-Acetyl-8-cyclopentyl-5-methyl-2-(6-piperazin-1-yl-pyridin-3-ylamino)-8H-pyrido[2,3-d]pyrimidin-7-one]	–
0.19 µM	0.012 µM	–	O=c1c(Br)cc2cnc(Nc3ccc(N4CCNCC4)nc3)nc2n1C1CCCC1 [Example 3, 6-Bromo-8-cyclopentyl-2-(6-piperazin-1-yl-pyridin-3-ylamino)-8H-pyrido[2,3-d]pyrimidin-7-one hydrochloride salt]	–
3.2 µM	0.022 µM	290 °C	Cc1c(Br)c(=O)n(C2CCCC2)c2nc(Nc3ccc(N4CCNCC4)nc3)ncc12 [Example 6, 6-Bromo-8-cyclopentyl-5-methyl-2-(6-piperazin-1-yl-pyridin-3-ylamino)-8H-pyrido[2,3-d]pyrimidin-7-one]	–
1.02 µM	0.099 µM	254 to 256 °C	Cc1c(Br)c(=O)n(C2CCCC2)c2nc(Nc3ccc(N4CCOCC4)nc3)ncc12 [Example 4, 6-Bromo-8-cyclopentyl-5-methyl-2-(6-morpholin-4-yl-pyridin-3-ylamino)-8H-pyrido[2,3-d]pyrimidin-7-one]	–

Second part, the compound before the results:

Compound	IC50 [1]	IC50 [2]	melting point	inhibition of neointima formation [3]
CC(C)n1c(=O)ccc2cnc(Nc3cccnc3)nc21 [Example 1, 8-Isopropyl-2-(pyridin-3-ylamino)-8H-pyrido[2,3-d]pyrimidin-7-one]	0.235 µM	0.535 µM	156 to 158 °C	–
COc1ccc(CNc2nc(N(CCO)CCO)nc3c2ncn3C(C)C)cc1 [CVT-313]	–	–	–	greater than 80%
COc1ccc(Nc2ncc3ccc(=O)n(C4CCCC4)c3n2)cn1 [Example 2, 8-Cyclopentyl-2-(6-methoxy-pyridin-3-ylamino)-8H-pyrido[2,3-d]pyrimidin-7-one]	0.029 µM	0.082 µM	181 to 182 °C	–
CC(=O)c1c(C)c2cnc(Nc3ccc(N4CCOCC4)nc3)nc2n(C2CCCC2)c1=O [Example 5, 6-Acetyl-8-cyclopentyl-5-methyl-2-(6-morpholin-4-yl-pyridin-3-ylamino)-8H-pyrido[2,3-d]pyrimidin-7-one]	–	–	224 to 226 °C	–

From patent US20050182078A1, “2-(Pyridin-3-ylamino)-pyrido[2,3-D]pyrimidin-7-ones” (WARNER-LAMBERT COMPANY, LLC, priority 2004, published 2005)
